Test results: the NIST ThermoML archive (doi:10.1021/acs.jced.8b00011)
Where “and” joins values, the source holds several entries; their conditions need not be identical. Identical values can stand only once. Numbers after ± are expanded uncertainties.

Details: Liquid; for mass density: Vibrating tube method; for electrical conductivity: electrochemical impedance spectroscopy

CCCCC[P+](CC)(CC)CC.O=S(=O)([N-]S(=O)(=O)C(F)(F)F)C(F)(F)F
viscosity (273.15 K, 100 kPa, Concentric cylinders viscometry): 391.1 ± 13 mPa·s | viscosity (273.15 K, 100 kPa, Falling or rolling sphere viscometry): 396.2 ± 28 mPa·s and 396 ± 28 mPa·s | mass density (273.15 K, 100 kPa): 1323.74 ± 1.9 kg/m3 and 1324 ± 1.9 kg/m3 and 1323.6 ± 1.3 kg/m3 | electrical conductivity (273.15 K, 101.33 kPa): 0.0399 S/m and 0.04 S/m | viscosity (278.15 K, 100 kPa, Concentric cylinders viscometry): 275.6 ± 8.5 mPa·s | viscosity (278.15 K, 100 kPa, Falling or rolling sphere viscometry): 278.3 ± 16 mPa·s and 278.2 ± 16 mPa·s | mass density (278.15 K, 100 kPa): 1319.92 ± 1.9 kg/m3 and 1319.6 ± 1.9 kg/m3 and 1319.31 ± 1.3 kg/m3 | electrical conductivity (278.15 K, 101.33 kPa): 0.0556 S/m and 0.0557 S/m | electrical conductivity (283.14 K, 149300 kPa, Frequency=0 MHz): 0.0123 ± 0.00025 S/m | electrical conductivity (283.14 K, 174300 kPa, Frequency=0 MHz): 0.00927 ± 0.00019 S/m | viscosity (283.15 K, 100 kPa, Concentric cylinders viscometry): 199.6 ± 5.6 mPa·s | viscosity (283.15 K, 100 kPa, Falling or rolling sphere viscometry): 201.3 ± 9.7 mPa·s and 200.4 ± 9.7 mPa·s | electrical conductivity (283.15 K, 100 kPa, Frequency=0 MHz): 0.076 ± 0.0015 S/m | mass density (283.15 K, 100 kPa): 1315.3 ± 1.9 kg/m3 [middle of 4 runs] | electrical conductivity (283.15 K, 101.33 kPa): 0.0756 S/m and 0.076 S/m and 0.0755 S/m | electrical conductivity (283.15 K, 1200 kPa, Frequency=0 MHz): 0.0749 ± 0.0015 S/m | electrical conductivity (283.15 K, 3100 kPa, Frequency=0 MHz): 0.0728 ± 0.0015 S/m | electrical conductivity (283.15 K, 5100 kPa, Frequency=0 MHz): 0.0709 ± 0.0014 S/m | viscosity (283.15 K, 10600 kPa, Falling or rolling sphere viscometry): 228.6 ± 12 mPa·s | electrical conductivity (283.15 K, 15400 kPa, Frequency=0 MHz): 0.0618 ± 0.0012 S/m | electrical conductivity (283.15 K, 20500 kPa, Frequency=0 MHz): 0.0578 ± 0.0012 S/m | viscosity (283.15 K, 20600 kPa, Falling or rolling sphere viscometry): 263 ± 15 mPa·s | electrical conductivity (283.15 K, 25600 kPa, Frequency=0 MHz): 0.054 ± 0.0011 S/m | viscosity (283.15 K, 30300 kPa, Falling or rolling sphere viscometry): 302.4 ± 19 mPa·s | electrical conductivity (283.15 K, 30600 kPa, Frequency=0 MHz): 0.0507 ± 0.001 S/m | viscosity (283.15 K, 40800 kPa, Falling or rolling sphere viscometry): 352.7 ± 24 mPa·s | electrical conductivity (283.15 K, 42000 kPa, Frequency=0 MHz): 0.0437 ± 0.00088 S/m | electrical conductivity (283.15 K, 50300 kPa, Frequency=0 MHz): 0.0394 ± 0.00079 S/m | viscosity (283.15 K, 50700 kPa, Falling or rolling sphere viscometry): 398.9 ± 28 mPa·s | viscosity (283.15 K, 60900 kPa, Falling or rolling sphere viscometry): 459.1 ± 35 mPa·s | viscosity (283.15 K, 71400 kPa, Falling or rolling sphere viscometry): 527.1 ± 42 mPa·s | electrical conductivity (283.15 K, 74900 kPa, Frequency=0 MHz): 0.0294 ± 0.00059 S/m | viscosity (283.15 K, 80400 kPa, Falling or rolling sphere viscometry): 599.8 ± 51 mPa·s | viscosity (283.15 K, 88200 kPa, Falling or rolling sphere viscometry): 667.7 ± 59 mPa·s | viscosity (283.15 K, 94700 kPa, Falling or rolling sphere viscometry): 740.8 ± 68 mPa·s | electrical conductivity (283.15 K, 99800 kPa, Frequency=0 MHz): 0.0219 ± 0.00044 S/m | electrical conductivity (283.15 K, 126100 kPa, Frequency=0 MHz): 0.016 ± 0.00032 S/m | electrical conductivity (283.16 K, 2100 kPa, Frequency=0 MHz): 0.0741 ± 0.0015 S/m | electrical conductivity (283.16 K, 10300 kPa, Frequency=0 MHz): 0.0661 ± 0.0013 S/m | electrical conductivity (283.16 K, 199900 kPa, Frequency=0 MHz): 0.00703 ± 0.00014 S/m | viscosity (288.15 K, 100 kPa, Concentric cylinders viscometry): 148 ± 3.9 mPa·s | mass density (288.15 K, 100 kPa): 1311.35 ± 1.9 kg/m3 and 1311 ± 1.9 kg/m3 and 1310.72 ± 1.3 kg/m3 | electrical conductivity (288.16 K, 101.33 kPa): 0.1 S/m | viscosity (293.15 K, 100 kPa, Concentric cylinders viscometry): 111.8 ± 2.7 mPa·s and 112.2 ± 2.8 mPa·s and 112 ± 2.7 mPa·s | viscosity (293.15 K, 100 kPa, Falling or rolling sphere viscometry): 112.7 ± 3.8 mPa·s | mass density (293.15 K, 100 kPa): 1306.8 ± 1.8 kg/m3 [middle of 4 runs] | electrical conductivity (293.15 K, 101.33 kPa): 0.13 S/m | electrical conductivity (298.14 K, 176500 kPa, Frequency=0 MHz): 0.0255 ± 0.00051 S/m | viscosity (298.15 K, 100 kPa, Concentric cylinders viscometry): 86.33 ± 2 mPa·s | viscosity (298.15 K, 100 kPa, Falling or rolling sphere viscometry): 87.05 ± 3.3 mPa·s and 87.04 ± 3.3 mPa·s and 87.45 ± 3.4 mPa·s | electrical conductivity (298.15 K, 100 kPa, Frequency=0 MHz): 0.165 ± 0.0033 S/m | mass density (298.15 K, 100 kPa): 1302.45 ± 1.8 kg/m3 [middle of 6 runs] | electrical conductivity (298.15 K, 101.33 kPa): 0.166 S/m and 0.165 S/m | viscosity (298.15 K, 600 kPa, Falling or rolling sphere viscometry): 86.57 ± 2.4 mPa·s | mass density (298.15 K, 1000 kPa): 1302.82 ± 1.3 kg/m3 | electrical conductivity (298.15 K, 3400 kPa, Frequency=0 MHz): 0.159 ± 0.0032 S/m | mass density (298.15 K, 5000 kPa): 1305.75 ± 1.3 kg/m3 | electrical conductivity (298.15 K, 5100 kPa, Frequency=0 MHz): 0.155 ± 0.0031 S/m | electrical conductivity (298.15 K, 9800 kPa, Frequency=0 MHz): 0.146 ± 0.0029 S/m | mass density (298.15 K, 10000 kPa): 1309.28 ± 1.3 kg/m3 | viscosity (298.15 K, 10500 kPa, Falling or rolling sphere viscometry): 99.67 ± 3.1 mPa·s | electrical conductivity (298.15 K, 15000 kPa, Frequency=0 MHz): 0.138 ± 0.0028 S/m | mass density (298.15 K, 15000 kPa): 1312.76 ± 1.4 kg/m3 | mass density (298.15 K, 20000 kPa): 1316.13 ± 1.4 kg/m3 | viscosity (298.15 K, 20500 kPa, Falling or rolling sphere viscometry): 114.4 ± 3.9 mPa·s | electrical conductivity (298.15 K, 20900 kPa, Frequency=0 MHz): 0.129 ± 0.0026 S/m | mass density (298.15 K, 25000 kPa): 1319.42 ± 1.4 kg/m3 | electrical conductivity (298.15 K, 25800 kPa, Frequency=0 MHz): 0.122 ± 0.0024 S/m | mass density (298.15 K, 30000 kPa): 1322.62 ± 1.4 kg/m3 | viscosity (298.15 K, 30600 kPa, Falling or rolling sphere viscometry): 130.4 ± 4.9 mPa·s | electrical conductivity (298.15 K, 31200 kPa, Frequency=0 MHz): 0.114 ± 0.0023 S/m | mass density (298.15 K, 35000 kPa): 1325.82 ± 1.5 kg/m3 | mass density (298.15 K, 40000 kPa): 1328.9 ± 1.5 kg/m3 | viscosity (298.15 K, 40500 kPa, Falling or rolling sphere viscometry): 148 ± 6 mPa·s | electrical conductivity (298.15 K, 41000 kPa, Frequency=0 MHz): 0.102 ± 0.002 S/m | mass density (298.15 K, 45000 kPa): 1331.96 ± 1.6 kg/m3 | mass density (298.15 K, 50010 kPa): 1334.83 ± 1.6 kg/m3 | viscosity (298.15 K, 50500 kPa, Falling or rolling sphere viscometry): 167.4 ± 7.3 mPa·s | electrical conductivity (298.15 K, 51100 kPa, Frequency=0 MHz): 0.0914 ± 0.0018 S/m | electrical conductivity (298.15 K, 56700 kPa, Frequency=0 MHz): 0.0859 ± 0.0017 S/m
